Results taken from patent US10525041B2, “Fluoroalkyl-substituted aryltriazole derivatives and uses thereof” (BAYER PHARMA AKTIENGESELLSCHAFT, priority 2016, dated 2020).

Columns and labels:
[1] = target: T1, human V1a receptor (Homo sapiens, UniProt P37288); assay: Cellular in vitro assay for vasopressin receptor activity, V1a cell line (aequorin luminescence); type: cell-based; conditions: for IC50: CHO cell line transfected with human V1a receptor, agonist [Arg8]-vasopressin at EC50 concentration, read-out: IC50hV1a; for ratio IC50 hV2/hV1a: ratio of the IC50 on human V2 to the IC50 on human V1a
T1 construct: expressed in transfected cells; host or cells: CHO K1 (ATCC), also stably transfected with a modified aequorin
Method: (§1) B-1. Cellular In Vitro Assay for Determining Vasopressin Receptor Activity
(§2) The identification of agonists and antagonists of the V1a and V2 vasopressin receptors from humans, rats and dogs as well as the quantification of the activity of the compounds of the invention is carried out using recombinant cell lines. These cell lines originally derive from a hamster's ovary epithelial cell (Chinese Hamster Ovary, CHO K1, ATCC: American Type Culture Collection, Manassas, Va. 20108, USA). The test cell lines constitutively express the human, rat or dog V1a or V2 receptors. In case of the Gαq-coupled V1a receptors, cells are also stably transfected with a modified form of the calcium-sensitive photoproteins aequorin (human and rat V1a) or obelin (dog V1a), which, after reconstitution with the cofactor coelenterazine, emit light when there are increases in free calcium concentrations [Rizzuto R, Simpson A W, Brini M, Pozzan T, Nature 358, 325-327 (1992); Illarionov B A, Bondar V S, Illarionova V A, Vysotski E S, Gene 153 (2), 273-274 (1995)]. The resulting vasopressin receptor cells react to stimulation of the recombinantly expressed V1a receptors by intracellular release of calcium ions, which can be quantified by the resulting photoprotein luminescence. The Gs-coupled V2 receptors are stably transfected into cell lines expressing the gene for firefly luciferase under control of a CRE-responsible promoter. Activation of V2 receptors induces the activation of the CRE-responsive promoter via cAMP increase, thereby inducing the expression of firefly luciferase. The light emitted by photoproteins of V1a cell lines as well as the light emitted by firefly luciferase of V2 cell lines corresponds to the activation or inhibition of the respective vasopressin receptor. The bioluminescence of the cell lines is detected using a suitable luminometer [Milligan G, Marshall F, Rees S, Trends in Pharmacological Sciences 17, 235-237 (1996)].
Vasopressin V1a Receptor Cell Lines:
On the day before the assay, the cells are plated out in culture medium (DMEM/F12, 2% FCS, 2 mM glutamine, 10 mM HEPES, 5 μg/ml coelenterazine) in 384-well microtiter plates and kept in a cell incubator (96% humidity, 5% v/v CO2, 37° C.). On the day of the assay, test compounds in various concentrations are placed for 10 minutes in the wells of the microtiter plate before the agonist [Arg^8]-vasopressin at EC50 concentration is added. The resulting light signal is measured immediately in a luminometer.
(§3) Table 1A below lists individual IC50 values for the compounds of the invention (including racemic mixtures as well as separated enantiomers) that were obtained from cell lines transfected with the human V1a or V2 receptor: […]

[2] = target: T2, human V2 receptor (Homo sapiens, UniProt P30518); assay: Cellular in vitro assay for vasopressin receptor activity, V2 cell line (CRE-luciferase); type: cell-based; conditions: CHO cell line transfected with human V2 receptor; agonist [Arg8]-vasopressin at EC50 concentration, 3 hours; read-out: IC50hV2
T2 construct: expressed in transfected cells; host or cells: CHO K1 (ATCC) line expressing firefly luciferase under a CRE-responsive promoter
Method: as §1, §2
Vasopressin V2 Receptor Cell Lines:
On the day before the assay, the cells are plated out in culture medium (DMEM/F12, 2% FCS, 2 mM glutamine, 10 mM HEPES) in 384-well microtiter plates and kept in a cell incubator (96% humidity, 5% v/v CO2, 37° C.). On the day of the assay, test compounds in various concentrations and the agonist [Arg^8]-vasopressin at EC50 concentration are added together to the wells, and plates are incubated for 3 hours in a cell incubator. Upon addition of the cell lysis reagent Triton™ and the substrate luciferin, luminescence of firefly luciferase is measured in a luminometer.
as §3

T1 sequence (P37288 whole entry): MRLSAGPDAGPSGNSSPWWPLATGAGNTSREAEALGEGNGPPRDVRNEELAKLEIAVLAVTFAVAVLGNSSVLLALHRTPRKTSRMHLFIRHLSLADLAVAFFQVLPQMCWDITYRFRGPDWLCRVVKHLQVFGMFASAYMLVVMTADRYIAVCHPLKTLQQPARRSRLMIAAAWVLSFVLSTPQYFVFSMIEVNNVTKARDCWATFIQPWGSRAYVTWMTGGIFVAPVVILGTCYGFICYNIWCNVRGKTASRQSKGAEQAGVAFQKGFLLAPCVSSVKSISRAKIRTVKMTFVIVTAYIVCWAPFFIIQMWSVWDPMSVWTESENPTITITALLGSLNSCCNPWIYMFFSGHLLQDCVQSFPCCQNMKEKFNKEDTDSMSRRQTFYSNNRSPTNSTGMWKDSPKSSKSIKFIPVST
T2 sequence (P30518 whole entry): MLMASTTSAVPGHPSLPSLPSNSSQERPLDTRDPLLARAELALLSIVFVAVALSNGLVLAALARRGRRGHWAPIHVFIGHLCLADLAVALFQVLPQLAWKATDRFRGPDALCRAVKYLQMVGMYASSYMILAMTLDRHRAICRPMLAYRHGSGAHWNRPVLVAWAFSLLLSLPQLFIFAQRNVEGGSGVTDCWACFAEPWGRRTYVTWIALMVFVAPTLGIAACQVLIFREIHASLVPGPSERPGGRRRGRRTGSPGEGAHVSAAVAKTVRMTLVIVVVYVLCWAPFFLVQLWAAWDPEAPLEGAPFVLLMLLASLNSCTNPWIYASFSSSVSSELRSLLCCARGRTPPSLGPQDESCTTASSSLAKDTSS

Row | Compound | IC50 [1] | ratio IC50 hV2/hV1a [1] | IC50 [2]
1 | CCc1ccccc1-n1nc(Cn2nc(-c3ccc(Cl)cc3)n(C[C@H](O)C(F)(F)F)c2=O)nc1C(C)F (single isomer, unassigned) [Example 30] | 1.85 nM | 1.0 | 1.9 nM
2 | CC(F)c1nc(Cn2nc(-c3ccc(Cl)cc3)n(C[C@H](O)C(F)(F)F)c2=O)nn1-c1cnccc1C(F)(F)F (single isomer, unassigned) [Example 9] | 1 nM | 7.1 | 7.05 nM
3 | CC(F)c1nc(Cn2nc(-c3ccc(Cl)cc3)n(C[C@H](O)C(F)(F)F)c2=O)nn1-c1ncccc1Cl (single isomer, unassigned) [Example 21] | 1.55 nM | 8.1 | 12.5 nM
4 | CC(F)c1nc(Cn2nc(-c3ccc(Cl)cc3)n(C[C@H](O)C(F)(F)F)c2=O)nn1-c1ccccc1C(F)(F)F (single isomer, unassigned) [Example 24] | 1.1 nM | 4.2 | 4.65 nM
5 | CC(F)c1nc(Cn2nc(-c3ccc(Cl)cc3)n(C[C@H](O)C(F)(F)F)c2=O)nn1-c1cnccc1Cl (single isomer, unassigned) [Example 6] | 0.48 nM | 5.0 | 2.37 nM
6 | CC(F)c1nc(Cn2nc(-c3ccc(Cl)cc3)n(C[C@H](O)C(F)(F)F)c2=O)nn1-c1ccccc1Cl (single isomer, unassigned) [Example 2] | 0.36 nM | 3.8 | 1.34 nM
7 | Cc1ccccc1-n1nc(Cn2nc(-c3ccc(Cl)cc3)n(C[C@H](O)C(F)(F)F)c2=O)nc1C(C)F (single isomer, unassigned) [Example 36] | 0.65 nM | 1.5 | 0.98 nM
8 | CC(C)c1ccccc1-n1nc(Cn2nc(-c3ccc(Cl)cc3)n(C[C@H](O)C(F)(F)F)c2=O)nc1C(C)F (mixture of isomers) [Example 47, 5-(4-Chlorophenyl)-2-({5-[1-fluoroethyl]-1-[2-(propan-2-yl)phenyl]-1H-1,2,4-triazol-3-yl}methyl)-4-[(2S)-3,3,3-trifluoro-2-hydroxypropyl]-2,4-dihydro-3H-1,2,4-triazol-3-one] | 30 nM | 1.2 | 35 nM
9 | CC(F)c1nc(Cn2nc(-c3ccc(Cl)cc3)n(C[C@H](O)C(F)(F)F)c2=O)nn1-c1ncccc1C(F)(F)F (single isomer, unassigned) [Example 11] | 13.5 nM | 5.5 | 73.8 nM
10 | CC(F)(F)c1nc(Cn2nc(-c3ccc(Cl)cc3)n(C[C@H](O)C(F)(F)F)c2=O)nn1-c1cccc(Cl)c1 [Example 55, 5-(4-Chlorophenyl)-2-{[1-(3-chlorophenyl)-5-(1,1-difluoroethyl)-1H-1,2,4-triazol-3-yl]methyl}-4-[(2S)-3,3,3-trifluoro-2-hydroxypropyl]-2,4-dihydro-3H-1,2,4-triazol-3-one] | 60 nM | 0.1 | 5.23 nM
11 | CC(F)(F)c1nc(Cn2nc(-c3ccc(Cl)cc3)n(C[C@H](O)C(F)(F)F)c2=O)nn1-c1ccccc1OC(F)F [Example 63, 5-(4-Chlorophenyl)-2-({5-(1,1-difluoroethyl)-1-[2-(difluoromethoxy)phenyl]-1H-1,2,4-triazol-3-yl}methyl)-4-[(2S)-3,3,3-trifluoro-2-hydroxypropyl]-2,4-dihydro-3H-1,2,4-triazol-3-one] | 2.1 nM | 3.3 | 6.95 nM
12 | O=c1n(Cc2nc(C(F)F)n(-c3cccc(Cl)c3)n2)nc(-c2ccc(Cl)cc2)n1C[C@H](O)C(F)(F)F [Example 50, 5-(4-Chlorophenyl)-2-{[1-(3-chlorophenyl)-5-(difluoromethyl)-1H-1,2,4-triazol-3-yl]methyl}-4-[(2S)-3,3,3-trifluoro-2-hydroxypropyl]-2,4-dihydro-3H-1,2,4-triazol-3-one] | 36 nM | 0.1 | 2.59 nM
13 | CC(F)c1nc(Cn2nc(-c3ccc(Cl)cc3)n(C[C@H](O)C(F)(F)F)c2=O)nn1-c1ccccc1C(F)(F)F (mixture of isomers) [Example 22, 5-(4-Chlorophenyl)-2-({5-[1-fluoroethyl]-1-[2-(trifluoromethyl)phenyl]-1H-1,2,4-triazol-3-yl}methyl)-4-[(2S)-3,3,3-trifluoro-2-hydroxypropyl]-2,4-dihydro-3H-1,2,4-triazol-3-one] | 3.9 nM | 3.5 | 13.5 nM
14 | CC(F)c1nc(Cn2nc(-c3ccc(Cl)cc3)n(C[C@H](O)C(F)(F)F)c2=O)nn1-c1cccc(Cl)c1 (single isomer, unassigned) [Example 17] | 9.25 nM | 0.0 | 0.25 nM
15 | CC(F)(F)c1nc(Cn2nc(-c3ccc(Cl)cc3)n(C[C@H](O)C(F)(F)F)c2=O)nn1-c1ccccc1Cl [Example 53, 5-(4-Chlorophenyl)-2-{[1-(2-chlorophenyl)-5-(1,1-difluoroethyl)-1H-1,2,4-triazol-3-yl]methyl}-4-[(2S)-3,3,3-trifluoro-2-hydroxypropyl]-2,4-dihydro-3H-1,2,4-triazol-3-one] | 0.4 nM | 2.9 | 1.16 nM
16 | CC(F)c1nc(Cn2nc(-c3ccc(Cl)cc3)n(C[C@H](O)C(F)(F)F)c2=O)nn1-c1ncccc1C(F)(F)F (single isomer, unassigned) [Example 12] | 3.8 nM | 5.9 | 22.5 nM
17 | CC(F)c1nc(Cn2nc(-c3ccc(Cl)cc3)n(C[C@H](O)C(F)(F)F)c2=O)nn1-c1ccccc1OC(F)F (single isomer, unassigned) [Example 33] | 2.15 nM | 0.8 | 1.8 nM
18 | CC(F)c1nc(Cn2nc(-c3ccc(Cl)cc3)n(C[C@H](O)C(F)(F)F)c2=O)nn1-c1ccccc1C#N (single isomer, unassigned) [Example 40] | 28.5 nM | 14.7 | 420 nM
19 | CC(F)c1nc(Cn2nc(-c3ccc(Cl)cc3)n(C[C@H](O)C(F)(F)F)c2=O)nn1-c1ccccc1OC(F)F (single isomer, unassigned) [Example 32] | 2.4 nM | 3.7 | 8.9 nM
20 | CC(F)c1nc(Cn2nc(-c3ccc(Cl)cc3)n(C[C@H](O)C(F)(F)F)c2=O)nn1-c1ccccc1Cl (single isomer, unassigned) [Example 3] | 0.9 nM | 1.0 | 0.93 nM
21 | O=c1n(Cc2nc(C(F)(F)F)n(-c3ccccc3Cl)n2)nc(-c2ccc(Cl)cc2)n1C[C@H](O)C(F)(F)F [Example 79, 5-(4-Chlorophenyl)-2-{[1-(2-chlorophenyl)-5-(trifluoromethyl)-1H-1,2,4-triazol-3-yl]methyl}-4-[(2S)-3,3,3-trifluoro-2-hydroxypropyl]-2,4-dihydro-3H-1,2,4-triazol-3-one] | 0.78 nM | 3.3 | 2.58 nM
22 | CC(F)(F)c1nc(Cn2nc(-c3ccc(Cl)cc3)n(C[C@H](O)C(F)(F)F)c2=O)nn1-c1cccc(F)c1 [Example 56, 5-(4-Chlorophenyl)-2-{[5-(1,1-difluoroethyl)-1-(3-fluorophenyl)-1H-1,2,4-triazol-3-yl]methyl}-4-[(2S)-3,3,3-trifluoro-2-hydroxypropyl]-2,4-dihydro-3H-1,2,4-triazol-3-one] | 15.5 nM | 0.3 | 5.25 nM
